Experimental data from PubChem BioAssay AID1745844 (Carcinogenic Potency Database (CPDB), 2022).
Active and inactive are the calls of the source. No rule for the calls is given here.

Test system: rodent lifetime carcinogenesis bioassay, tumor incidence TD50
Test: carcinogenic potency in animals, long-term in vivo studies, CPDB compilation (AID 1745844)

## c1ccc(NNc2ccccc2)cc1
mouse, strain B6C3F1, females, in feed, site: any site (literature study), lesion: several types, types named in the paper, dosed 78 weeks, study length 95 weeks
  TD50: 31.5 mg/kg/day
mouse, strain B6C3F1, females, in feed, site: liver, lesion: hepatocellular adenoma + hepatocellular carcinoma + neoplastic nodule, dosed 78 weeks, study length 95 weeks
  TD50: 26 mg/kg/day
mouse, strain B6C3F1, females, in feed, site: liver, lesion: hepatocellular adenoma + hepatocellular carcinoma, dosed 78 weeks, study length 95 weeks
  TD50: 26 mg/kg/day
mouse, strain B6C3F1, females, in feed, site: liver, lesion: hepatocellular carcinoma, dosed 78 weeks, study length 95 weeks
  TD50: 29.7 mg/kg/day
mouse, strain B6C3F1, females, in feed, site: lung, lesion: alveolar/bronchiolar adenoma + alveolar/bronchiolar carcinoma, dosed 78 weeks, study length 95 weeks
  TD50: 8760 mg/kg/day
mouse, strain B6C3F1, males, in feed, site: any site (literature study), lesion: several types, types named in the paper, dosed 78 weeks, study length 95 weeks
  carcinogen call: negative (inactive)
mouse, strain B6C3F1, males, in feed, site: liver, lesion: hepatocellular adenoma + hepatocellular carcinoma + neoplastic nodule, dosed 78 weeks, study length 95 weeks
  TD50: 1090 mg/kg/day
rat, strain Fischer 344, females, in feed, site: any site (literature study), lesion: several types, types named in the paper, dosed 78 weeks, study length 106 weeks
  TD50: 4.5 mg/kg/day
rat, strain Fischer 344, females, in feed, site: liver + mammary gland, lesion: neoplastic nodule + adenocarcinoma, NOS, dosed 78 weeks, study length 106 weeks
  TD50: 6.74 mg/kg/day
rat, strain Fischer 344, females, in feed, site: liver, lesion: hepatocellular adenoma + hepatocellular carcinoma + neoplastic nodule, dosed 78 weeks, study length 106 weeks
  TD50: 18.1 mg/kg/day
rat, strain Fischer 344, females, in feed, site: liver, lesion: neoplastic nodule, dosed 78 weeks, study length 106 weeks
  TD50: 18.1 mg/kg/day
rat, strain Fischer 344, females, in feed, site: mammary gland, lesion: adenocarcinoma, NOS, dosed 78 weeks, study length 106 weeks
  TD50: 11.4 mg/kg/day
rat, strain Fischer 344, males, in feed, site: Zymbal's gland, lesion: squamous-cell carcinoma, dosed 78 weeks, study length 106 weeks
  TD50: 38.5 mg/kg/day
rat, strain Fischer 344, males, in feed, site: adrenal gland, lesion: pheochromocytoma, dosed 78 weeks, study length 106 weeks
  TD50: 16.2 mg/kg/day
rat, strain Fischer 344, males, in feed, site: any site (literature study), lesion: several types, types named in the paper, dosed 78 weeks, study length 106 weeks
  TD50: 6.85 mg/kg/day
rat, strain Fischer 344, males, in feed, site: ear canal + Zymbal's gland, lesion: squamous-cell carcinoma + squamous-cell papilloma, dosed 78 weeks, study length 106 weeks
  TD50: 35.8 mg/kg/day
rat, strain Fischer 344, males, in feed, site: liver + Zymbal's gland, lesion: hepatocellular carcinoma + neoplastic nodule + squamous-cell carcinoma, dosed 78 weeks, study length 106 weeks
  TD50: 3.55 mg/kg/day
rat, strain Fischer 344, males, in feed, site: liver, lesion: hepatocellular adenoma + hepatocellular carcinoma + neoplastic nodule, dosed 78 weeks, study length 106 weeks
  TD50: 3.7 mg/kg/day
rat, strain Fischer 344, males, in feed, site: liver, lesion: hepatocellular carcinoma + neoplastic nodule, dosed 78 weeks, study length 106 weeks
  TD50: 3.7 mg/kg/day
rat, strain Fischer 344, males, in feed, site: liver, lesion: hepatocellular carcinoma, dosed 78 weeks, study length 106 weeks
  TD50: 4.67 mg/kg/day

## N=c1ccn2c(n1)O[C@H]1[C@H](O)[C@@H](CO)O[C@H]12
rat, strain Wistar, females, i.p., site: any site (literature study), lesion: one or several types, types not named, dosed 52 weeks, study length 52 weeks
  carcinogen call: negative (inactive)
rat, strain Wistar, females, i.p., site: any site (literature study), lesion: several types, types named in the paper, dosed 104 weeks, study length 104 weeks
  carcinogen call: negative (inactive)
rat, strain Wistar, males, i.p., site: any site (literature study), lesion: one or several types, types not named, dosed 52 weeks, study length 52 weeks
  carcinogen call: negative (inactive)
rat, strain Wistar, males, i.p., site: any site (literature study), lesion: several types, types named in the paper, dosed 104 weeks, study length 104 weeks
  carcinogen call: negative (inactive)

## Oc1c(Cl)cc(Cl)c(Cl)c1Cc1c(O)c(Cl)cc(Cl)c1Cl
mouse, strain C57BL, females, in feed, site: any site (literature study), lesion: several types, types named in the paper, dosed 104 weeks, study length 104 weeks
  carcinogen call: negative (inactive)
mouse, strain C57BL, females, in feed, site: liver, lesion: hepatoma, dosed 104 weeks, study length 104 weeks
  TD50: 434 mg/kg/day (inactive)
mouse, strain C57BL, males, in feed, site: any site (literature study), lesion: several types, types named in the paper, dosed 104 weeks, study length 104 weeks
  TD50: 900 mg/kg/day (inactive)
mouse, strain C57BL, males, in feed, site: liver, lesion: one or several types, types not named, dosed 104 weeks, study length 104 weeks
  carcinogen call: negative (inactive)
mouse, strain C57BL, males, in feed, site: lung, lesion: one or several types, types not named, dosed 104 weeks, study length 104 weeks
  carcinogen call: negative (inactive)
mouse, strain XVII/G, females, in feed, site: any site (literature study), lesion: several types, types named in the paper, dosed 104 weeks, study length 104 weeks
  TD50: 39.4 mg/kg/day (inactive)
mouse, strain XVII/G, females, in feed, site: liver, lesion: one or several types, types not named, dosed 104 weeks, study length 104 weeks
  carcinogen call: negative (inactive)
mouse, strain XVII/G, females, in feed, site: lung, lesion: one or several types, types not named, dosed 104 weeks, study length 104 weeks
  TD50: 33.4 mg/kg/day (inactive)
mouse, strain XVII/G, males, in feed, site: any site (literature study), lesion: several types, types named in the paper, dosed 104 weeks, study length 104 weeks
  TD50: 17.8 mg/kg/day (inactive)
mouse, strain XVII/G, males, in feed, site: liver, lesion: adenoma, dosed 104 weeks, study length 104 weeks
  TD50: 450 mg/kg/day (inactive)
mouse, strain XVII/G, males, in feed, site: lung, lesion: one or several types, types not named, dosed 104 weeks, study length 104 weeks
  TD50: 17.8 mg/kg/day (inactive)
rat, strain Fischer 344, females, in feed, site: any site (literature study), lesion: several types, types named in the paper, dosed 106 weeks, study length 106 weeks
  carcinogen call: negative (inactive)
rat, strain Fischer 344, males, in feed, site: any site (literature study), lesion: several types, types named in the paper, dosed 106 weeks, study length 106 weeks
  TD50: 30.4 mg/kg/day
rat, strain Fischer 344, males, in feed, site: subcutaneous tissue, lesion: fibrosarcoma, dosed 106 weeks, study length 106 weeks
  TD50: 41.3 mg/kg/day (inactive)
rat, strain Fischer 344, males, in feed, site: tunica vaginalis, lesion: mesothelioma, NOS, dosed 106 weeks, study length 106 weeks
  TD50: 57.5 mg/kg/day

## [Ge+4].[Na+].[Na+].[O-2].[O-2].[O-2]
mouse, strain Charles River CD1, both sexes, in drinking water, site: any site (literature study), lesion: benign tumor, dosed 104 weeks, study length 104 weeks
  carcinogen call: negative (inactive)
mouse, strain Charles River CD1, both sexes, in drinking water, site: any site (literature study), lesion: malignant tumor, dosed 104 weeks, study length 104 weeks
  carcinogen call: negative (inactive)
mouse, strain Charles River CD1, both sexes, in drinking water, site: any site (literature study), lesion: several types, types named in the paper, dosed 104 weeks, study length 104 weeks
  carcinogen call: negative (inactive)
mouse, strain Charles River CD1, both sexes, in drinking water, site: liver, lesion: several types, types named in the paper, dosed 104 weeks, study length 104 weeks
  carcinogen call: negative (inactive)
mouse, strain Charles River CD1, both sexes, in drinking water, site: lung, lesion: several types, types named in the paper, dosed 104 weeks, study length 104 weeks
  carcinogen call: negative (inactive)
rat, strain Long-Evans BLU:(LE), both sexes, in drinking water, site: any site (literature study), lesion: malignant tumor, dosed 149 weeks, study length 149 weeks
  carcinogen call: negative (inactive)
rat, strain Long-Evans BLU:(LE), both sexes, in drinking water, site: any site (literature study), lesion: one or several types, types not named, dosed 149 weeks, study length 149 weeks
  carcinogen call: negative (inactive)
rat, strain Long-Evans BLU:(LE), both sexes, in drinking water, site: liver, lesion: one or several types, types not named, dosed 149 weeks, study length 149 weeks
  carcinogen call: negative (inactive)

## CC(=O)NNC(C)=O
mouse, strain Swiss, females, by gavage, site: lung, lesion: several types, types named in the paper, dosed 34 weeks, study length 95 weeks
  carcinogen call: negative (inactive)
mouse, strain Swiss, females, by gavage, site: lung, lesion: several types, types named in the paper, dosed 95 weeks, study length 95 weeks
  carcinogen call: negative (inactive)
mouse, strain Swiss, males, by gavage, site: lung, lesion: several types, types named in the paper, dosed 34 weeks, study length 95 weeks
  TD50: 144 mg/kg/day (inactive)
mouse, strain Swiss, males, by gavage, site: lung, lesion: several types, types named in the paper, dosed 95 weeks, study length 95 weeks
  TD50: 411 mg/kg/day (inactive)

## C/C=C/C=O
rat, strain Charles River, males, in drinking water, site: liver, lesion: neoplastic nodule, dosed 113 weeks, study length 113 weeks
  TD50: 4.2 mg/kg/day
rat, strain Charles River, males, in drinking water, site: liver, lesion: several types, types named in the paper, dosed 113 weeks, study length 113 weeks
  TD50: 4.2 mg/kg/day

## C[C@@H]1C[C@]2(O[C@@H]2C)C(=O)O[C@@H]2CCN(C)C/C=C(/COC(=O)[C@]1(C)O)C2=O
rat, strain ACI, females, in drinking water, site: liver, lesion: hemangioendothelial sarcoma, dosed 68 weeks, study length 68 weeks
  TD50: 1.52 mg/kg/day
rat, strain ACI, females, in drinking water, site: liver, lesion: liver-cell adenoma, dosed 68 weeks, study length 68 weeks
  TD50: 4.13 mg/kg/day
rat, strain ACI, females, in drinking water, site: liver, lesion: several types, types named in the paper, dosed 68 weeks, study length 68 weeks
  TD50: 1.52 mg/kg/day
rat, strain ACI, males, in drinking water, site: liver, lesion: hemangioendothelial sarcoma, dosed 58 weeks, study length 58 weeks
  TD50: 4.78 mg/kg/day
rat, strain ACI, males, in drinking water, site: liver, lesion: liver-cell adenoma, dosed 58 weeks, study length 58 weeks
  TD50: 1.16 mg/kg/day
rat, strain ACI, males, in drinking water, site: liver, lesion: several types, types named in the paper, dosed 58 weeks, study length 58 weeks
  TD50: 0.662 mg/kg/day
